Patent US12421210B2, “Fused bicyclic heterocycles as therapeutic agents” (NEW YORK UNIVERSITY, priority 2018, dated 2025)

Biological target: human NAMPT enzyme (His-hNAMPT) (Homo sapiens (Human), UniProt P43490)
Experiment: NAMPT enzymatic inhibition assay (fluorescence, NADH product)
Assay type: biochemical
Conditions: [BPS]; read-out: NAMPT IC50 (μM) [BPS]
Method: The compounds were then diluted 20 fold in an intermediate dilution to 5% DMSO and water. Finally 10 μL of each compound was added to the assay plate, in duplicate, with highest concentration at 30 μM and the lowest at 0.001 μM in a final volume of 50 μL and 1% DMSO concentration. Each assay also tested, in parallel, two reference compounds, FK866 and GMX1778, with highest concentration at 10 μM and lowest at 0.0003 μM. 200 ng of human NAMPT enzyme (His-hNAMPT obtained from E. coli expression system) diluted in […] (tris-buffered saline-Polysorbate 20) 1× was added to each well in a volume of 10 μL and the compounds were incubated with the enzyme at room temperature for 20 minutes. After the incubation, 30 μL of master mixture were added to each well. The master mixture contained: 50 mM Tris-HCl, pH 8.0, 12.5 mM MgCl2, 20 μM nicotinamide, 40 μM phosphoribosyl pyrophosphate (PRPP), 20 μM adenosine triphosphate (ATP), 30 μg/mL of alcohol dehydrogenase, 10 μg/mL of NMNAT, 1.5% alcohol, 1 mM dithiothreitol (DTT), 0.02% bovine serum albumin (BSA), 0.01% Tween 20. The reaction was performed at 30° C. for 60 minutes. Fluorescence intensity was measured at an excitation of 340 nm and an emission of 460 nm using a Tecan Infinite M1000 microplate reader. The fluorescence values indicated increase of NADH product.
Enzyme activity assay was performed in duplicate at each concentration. The fluorescence data was analyzed and compared. In the absence of the compound, the intensity (Ce) in each data set was defined as 100% activity. In the absence of enzyme, the intensity (C0) in each data set was defined as 0% activity. The percent activity in the presence of each compound was calculated according to the following equation: % activity=(C−C0)/(Ce−C0), where C is the fluorescence in the presence of the compound.
The % activity vs. compound concentrations were then plotted using non-linear regression analysis of Sigmoidal dose-response curve generated with the equation Y=B+(T−B)/1+10^((Log EC50-X)×Hill Slope), where Y is percent activity, B is minimum percent activity, T is maximum percent activity, X is logarithm of compound and Hill Slope=slope factor or Hill coefficient.

Chain of human NAMPT enzyme (His-hNAMPT) (P43490 whole entry): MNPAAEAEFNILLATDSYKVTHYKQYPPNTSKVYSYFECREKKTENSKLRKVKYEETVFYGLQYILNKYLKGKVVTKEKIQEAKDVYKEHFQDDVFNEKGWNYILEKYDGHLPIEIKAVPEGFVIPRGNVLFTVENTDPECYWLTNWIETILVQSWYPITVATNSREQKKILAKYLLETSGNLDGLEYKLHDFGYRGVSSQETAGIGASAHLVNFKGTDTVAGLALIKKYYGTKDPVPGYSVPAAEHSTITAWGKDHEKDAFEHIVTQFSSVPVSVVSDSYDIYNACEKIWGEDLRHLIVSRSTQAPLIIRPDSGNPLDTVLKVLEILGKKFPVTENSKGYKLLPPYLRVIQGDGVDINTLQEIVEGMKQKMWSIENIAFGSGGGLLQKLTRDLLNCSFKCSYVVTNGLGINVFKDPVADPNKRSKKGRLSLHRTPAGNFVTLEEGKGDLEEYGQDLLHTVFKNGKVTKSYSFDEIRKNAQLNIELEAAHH

For `Cc1ccncc1C(=O)N1C[C@@H]2[C@@H](CCNC(=O)/C=C/c3ccc(N)nc3)[C@@H]2C1` [Example 92, (E)-3-(6-aminopyridin-3-yl)-N-(2-((1R,5S,6s)-3-(4-methylnicotinoyl)-3-azabicyclo[3.1.0]hexan-6-yl)ethyl)acrylamide], which IC50 is on record?
Its IC50 is 0.01 to 0.49 µM.

`Nc1ccc(/C=C/C(=O)NCC[C@@H]2[C@H]3CN(S(=O)(=O)c4ccccc4)C[C@@H]23)cn1` [Example 45, (E)-3-(6-aminopyrdiin-3-yl)-N-(2-((1R,5S,6s)-3-(phenylsulfonyl)-3-azabicyclo[3.1.0]hexan-6-yl)ethyl)acrylamide] was tested. Which IC50 did it give?
Its IC50 is 0.01 to 0.49 µM.

For `CC(C)(C)OC(=O)N1C[C@@H]2[C@@H](CCNC(=O)N3CCc4sccc4C3)[C@@H]2C1` [Example 16, (1R,5S,6s)-tert-butyl 6-(2-(4,5,6,7-tetrahydrothioeno[3,2-c]pyridine-5-carboxamido)ethyl)-3-azabicyclo[3.1.0]hexane-3-carboxylate], which IC50 is on record?
Its IC50 is 0.01 to 0.49 µM.

Which IC50 does the source give for `CC1(OC(=O)N2C[C@@H]3[C@@H](CNC(=O)/C=C/c4ccc(N)nc4)[C@@H]3C2)COC1` [Example 239, (1R,5S,6s)-3-methyloxetan-3-yl 6-(((E)-3-(6-aminopyridin-3-yl)acrylamido)methyl)-3-azabicyclo[3.1.0]hexane-3-carboxylate] here?
Its IC50 is 1 to 29 µM.

How did the IC50 turn out when `O=C(/C=C/c1cccnc1)NCC[C@@H]1[C@H]2CN(Cc3ccccc3)C(=O)[C@@H]12` (racemic) [Example 257, (E)-N-(2-((1R,5S,6S)-3-benzyl-2-oxo-3-azabicyclo[3.1.0]hexan-6-yl)ethyl)-3-(pyridin-3-yl)acrylamide and (E)-N-(2-((1S,5R,6R)-3-benzyl-2-oxo-3-azabicyclo[3.1.0]hexan-6-yl)ethyl)-3-(pyridin-3-yl)acrylamide] was run?
The IC50 was 0.01 to 0.49 µM.

Which IC50 does the source give for `O=C(/C=C/c1cccnc1)NCC[C@@H]1[C@H]2CN(c3ncccn3)C[C@@H]12` [Example 123, (E)-3-(pyridin-3-yl)-N-(2-((1R,5S,6s)-3-(pyrimidin-2-yl)-3-azabicyclo[3.1.0]hexan-6-yl)ethyl)acrylamide] here?
Its IC50 is 0.01 to 0.49 µM.

With `CC(C)(C)OC(=O)N1C[C@@H]2[C@@H](CCNC(=O)N3CC(c4cccnc4)C3)[C@@H]2C1` [Example 17, (1R,5S,6s)-tert-butyl 6-(2-(3-(pyridin-3-yl)azetidine-1-carboxamido)ethyl)-3-azabicyclo[3.1.0]hexane-3-carboxylate] as the compound, how does the IC50 read?
The IC50 was 0.01 to 0.49 µM.

With `CC1(OC(=O)N2C[C@@H]3[C@@H](CCNC(=O)N4Cc5ccc(F)cc5C4)[C@@H]3C2)COC1` [Example 42, (1R,5S,6s)-3-methyloxetan-3-yl 6-(2-(5-fluoroisoindoline-2-carboxamido)ethyl)-3-azabicyclo[3.1.0]hexane-3-carboxylate] as the compound, how does the IC50 read?
The IC50 was 0.01 to 0.49 µM.

`Nc1ccc(/C=C/C(=O)NCC[C@@H]2[C@H]3CN(C(=O)OC4CCCC4)C[C@@H]23)cn1` [Example 34, (1R,5S,6s)-cyclopentyl 6-(2-((E)-3-(6-aminopyridin-3-yl)acrylamido)ethyl)-3-azabicyclo[3.1.0]hexane-3-carboxylate] was tested. Which IC50 did it give?
Its IC50 is 0.01 to 0.49 µM.

How did the IC50 turn out when `CC(C)(C)OC(=O)N1C[C@H]2C[C@H](CNC(=O)N3Cc4ccncc4C3)C[C@H]2C1` [Example 273, (3aR,5s,6aS)-tert-butyl 5-((2,3-dihydro-1H-pyrrolo[3,4-c]pyridine-2-carboxamido)methyl)hexahydrocyclopenta[c]pyrrole-2(1H)-carboxylate] was run?
The IC50 was 1 to 29 µM.

For `CC(C)(C)OC(=O)N1C[C@H]2CCC(CNC(=O)NCc3cccnc3)C[C@H]2C1` (stereo in doubt) [Example 269, tert-butyl 5-((3-(pyridin-3-ylmethyl)ureido)methyl)hexahydro-1H-isoindole-2(3H)-carboxylate], which IC50 is on record?
The IC50 was 1 to 29 µM.

For `CC(C)(C)NC(=O)N1C[C@@H]2[C@@H](CCNC(=O)c3ccc4nccn4c3)[C@@H]2C1` [Example 64, N-(2-((1R,5S,6s)-3-(tert-butylcarbamoyl)-3-azabicyclo[3.1.0]hexan-6-yl)ethyl)imidazo[1,2-a]pyridine-6-carboxamide], which IC50 is on record?
The IC50 was 0.01 to 0.49 µM.

`CC1(OC(=O)N2C[C@@H]3[C@@H](CCNC(=O)/C=C/c4cnc(N)nc4)[C@@H]3C2)COC1` [Example 54, (1R,5S,6s)-3-methyloxetan-3-yl 6-(2-((E)-3-(2-aminopyrimidin-5-yl)acrylamido)ethyl)-3-azabicyclo[3.1.0]hexane-3-carboxylate] was tested. Which IC50 did it give?
The IC50 was 1 to 29 µM.

For `CC1(OC(=O)N2C[C@@H]3[C@@H](CCNC(=O)c4cc5ccncc5s4)[C@@H]3C2)COC1` [Example 26, (1R,5S,6s)-3-methyloxetan-3-yl 6-(2-(thieno[2,3-c]pyridine-2-carboxamido)ethyl)-3-azabicyclo[3.1.0]hexane-3-carboxylate], which IC50 is on record?
Its IC50 is 0.01 to 0.49 µM.

Same assay, conditions: [HDB]; read-out: NAMPT IC50 (μM) [HDB]

Which IC50 does the source give for `O=C(/C=C/c1cccnc1)NCC[C@@H]1[C@H]2CN(c3nc(-c4ncco4)ncc3F)C[C@@H]12` [Example 336, (E)-N-(2-((1R,5S,6s)-3-(5-fluoro-2-(oxazol-2-yl)pyrimidin-4-yl)-3-azabicyclo[3.1.0]hexan-6-yl)ethyl)-3-(pyridin-3-yl)acrylamide] here?
Its IC50 is less than 0.01 µM.

With `O=C(/C=C/c1cccnc1)NCC[C@@H]1[C@H]2CN(c3ccc(Cl)c(Cl)c3)C[C@@H]12` [Example 147, (E)-N-(2-((1R,5S,6s)-3-(3,4-dichlorophenyl)-3-azabicyclo[3.1.0]hexan-6-yl)ethyl)-3-(pyridin-3-yl)acrylamide] as the compound, how does the IC50 read?
The IC50 was less than 0.01 µM.

Which IC50 does the source give for `O=C(/C=C/c1cccnc1)NCC[C@@H]1[C@H]2CN(c3nc(OCc4ccccc4)ncc3F)C[C@@H]12` [Example 308, (E)-N-(2-((1R,5S,6s)-3-(2-(benzyloxy)-5-fluoropyrimidin-4-yl)-3-azabicyclo[3.1.0]hexan-6-yl)ethyl)-3-(pyridin-3-yl)acrylamide] here?
The IC50 was less than 0.01 µM.

`O=C(/C=C/c1cccnc1)NCC[C@@H]1[C@H]2CN(Cc3cccc(Cl)c3)C[C@@H]12` [Example 301, (E)-N-(2-((1R,5S,6s)-3-(3-chlorobenzyl)-3-azabicyclo[3.1.0]hexan-6-yl)ethyl)-3-(pyridin-3-yl)acrylamide] was tested. Which IC50 did it give?
The IC50 was less than 0.01 µM.

Which IC50 does the source give for `O=C(/C=C/c1cccnc1)NCC[C@@H]1[C@H]2CN(c3nccc(C(F)(F)F)n3)C[C@@H]12` [Example 169, (E)-3-(pyridin-3-yl)-N-(2-((1R,5S,6s)-3-(4-(trifluoromethyl)pyrimidin-2-yl)-3-azabicyclo[3.1.0]hexan-6-yl)ethyl)acrylamide] here?
Its IC50 is less than 0.01 µM.

For `O=C(/C=C/c1cccnc1)NCC[C@@H]1[C@H]2CN(c3cccc(C(F)(F)F)c3)C(=O)[C@@H]12` (racemic) [Example 262, (E)-N-(2-((1R,5S,6S)-2-oxo-3-(3-(trifluoromethyl)phenyl)-3-azabicyclo[3.1.0]hexan-6-yl)ethyl)-3-(pyridin-3-yl)acrylamide and (E)-N-(2-((1S,5R,6R)-2-oxo-3-(3-(trifluoromethyl)phenyl)-3-azabicyclo[3.1.0]hexan-6-yl)ethyl)-3-(pyridin-3-yl)acrylamide], which IC50 is on record?
The IC50 was 0.01 to 0.49 µM.

With `O=C(/C=C/c1cccnc1)NCC[C@@H]1[C@H]2CN(c3ccc4cnccc4c3)C[C@@H]12` [Example 142, (E)-N-(2-((1R,5S,6s)-3-(isoquinolin-6-yl)-3-azabicyclo[3.1.0]hexan-6-yl)ethyl)-3-(pyridin-3-yl)acrylamide] as the compound, how does the IC50 read?
Its IC50 is less than 0.01 µM.

With `CNC(=O)C(c1ccccc1)N1C[C@@H]2[C@@H](CCNC(=O)/C=C/c3cccnc3)[C@@H]2C1` (stereo partly drawn) [Example 317, (E)-N-(2-((1R,5S,6s)-3-(2-(methylamino)-2-oxo-1-phenylethyl)-3-azabicyclo[3.1.0]hexan-6-yl)ethyl)-3-(pyridin-3-yl)acrylamide] as the compound, how does the IC50 read?
The IC50 was less than 0.01 µM.

Which IC50 does the source give for `CC(C)(C)OC(=O)N1C[C@@H]2[C@@H](CCNC(=O)N3CC(c4cccnc4)C3)[C@@H]2C1` [Example 17, (1R,5S,6s)-tert-butyl 6-(2-(3-(pyridin-3-yl)azetidine-1-carboxamido)ethyl)-3-azabicyclo[3.1.0]hexane-3-carboxylate] here?
The IC50 was less than 0.01 µM.

How did the IC50 turn out when `O=C(/C=C/c1cccnc1)NCC[C@@H]1[C@H]2CN(C(c3ccccc3)C(F)(F)F)C[C@@H]12` (stereo partly drawn) [Example 296, (E)-3-(pyridin-3-yl)-N-(2-((1R,5S,6s)-3-(2,2,2-trifluoro-1-phenylethyl)-3-azabicyclo[3.1.0]hexan-6-yl)ethyl)acrylamide] was run?
Its IC50 is less than 0.01 µM.

For `NC(=O)c1cccc(C(=O)N2C[C@@H]3[C@@H](CCNC(=O)c4cc5cnccc5[nH]4)[C@@H]3C2)c1` [Example 116, N-(2-((1R,5S,6s)-3-(3-carbamoylbenzoyl)-3-azabicyclo[3.1.0]hexan-6-yl)ethyl)-1H-pyrrolo[3,2-c]pyridine-2-carboxamide], which IC50 is on record?
The IC50 was 0.01 to 0.49 µM.

With `O=C(/C=C/c1cccnc1)NCC[C@@H]1[C@H]2CN(c3cnccn3)C[C@@H]12` [Example 177, (E)-N-(2-((1R,5S,6s)-3-(pyrazin-2-yl)-3-azabicyclo[3.1.0]hexan-6-yl)ethyl)-3-(pyridin-3-yl)acrylamide] as the compound, how does the IC50 read?
Its IC50 is 0.01 to 0.49 µM.
